Legend:
[1] = tested on: NCI-H1975; test: Cytotoxicity against human NCI-H1975 cells harboring T790M/L858R mutant assessed as reduction in cell viability after 72 hrs by MTT assay; assay type: functional, cell-based; conditions: NCI-H1975, 72 h
[2] = tested on: A549; test: Cytotoxicity against human A549 cells harboring wild type EGFR assessed as reduction in cell viability after 72 hrs by MTT assay; assay type: functional, cell-based; conditions: A549, 72 h
[3] = biological target: Epidermal growth factor receptor (Homo sapiens, UniProt P00533, L858R/T790M)
Epidermal growth factor receptor (Homo sapiens, UniProt P00533, L858R/T790M), sequence (P00533 25-1210 T790M/L858R limits assumed): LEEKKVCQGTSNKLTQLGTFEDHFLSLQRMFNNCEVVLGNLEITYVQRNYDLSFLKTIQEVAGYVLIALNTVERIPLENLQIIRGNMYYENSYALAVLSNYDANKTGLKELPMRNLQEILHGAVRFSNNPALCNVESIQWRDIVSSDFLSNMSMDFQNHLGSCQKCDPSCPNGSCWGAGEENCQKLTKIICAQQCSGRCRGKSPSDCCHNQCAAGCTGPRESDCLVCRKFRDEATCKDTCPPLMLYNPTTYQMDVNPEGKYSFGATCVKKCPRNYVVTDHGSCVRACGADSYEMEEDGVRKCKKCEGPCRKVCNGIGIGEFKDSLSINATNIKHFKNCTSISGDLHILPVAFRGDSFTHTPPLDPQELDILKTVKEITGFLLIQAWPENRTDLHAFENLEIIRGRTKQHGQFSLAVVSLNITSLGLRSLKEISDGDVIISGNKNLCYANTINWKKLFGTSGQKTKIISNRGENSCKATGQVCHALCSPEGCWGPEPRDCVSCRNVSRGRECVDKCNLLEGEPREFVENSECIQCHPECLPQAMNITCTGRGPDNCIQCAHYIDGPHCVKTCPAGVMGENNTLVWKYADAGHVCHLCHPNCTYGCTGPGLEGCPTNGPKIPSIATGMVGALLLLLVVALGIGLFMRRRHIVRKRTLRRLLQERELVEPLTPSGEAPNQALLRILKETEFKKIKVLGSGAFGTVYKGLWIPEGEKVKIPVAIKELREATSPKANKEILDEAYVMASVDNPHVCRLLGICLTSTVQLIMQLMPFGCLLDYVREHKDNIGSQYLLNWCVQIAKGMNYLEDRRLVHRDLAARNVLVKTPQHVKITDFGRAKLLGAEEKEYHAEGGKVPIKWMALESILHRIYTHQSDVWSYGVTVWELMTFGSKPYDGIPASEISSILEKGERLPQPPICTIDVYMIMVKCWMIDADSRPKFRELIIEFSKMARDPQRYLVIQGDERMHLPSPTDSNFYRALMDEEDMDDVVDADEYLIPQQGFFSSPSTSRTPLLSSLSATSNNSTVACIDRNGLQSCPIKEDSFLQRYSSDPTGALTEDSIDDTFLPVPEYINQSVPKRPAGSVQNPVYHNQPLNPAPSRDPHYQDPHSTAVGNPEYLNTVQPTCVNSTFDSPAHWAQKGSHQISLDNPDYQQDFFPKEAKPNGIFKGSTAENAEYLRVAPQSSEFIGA

[4] = biological target: Epidermal growth factor receptor (Homo sapiens, UniProt P00533)
Epidermal growth factor receptor (Homo sapiens, UniProt P00533), sequence (P00533 whole entry): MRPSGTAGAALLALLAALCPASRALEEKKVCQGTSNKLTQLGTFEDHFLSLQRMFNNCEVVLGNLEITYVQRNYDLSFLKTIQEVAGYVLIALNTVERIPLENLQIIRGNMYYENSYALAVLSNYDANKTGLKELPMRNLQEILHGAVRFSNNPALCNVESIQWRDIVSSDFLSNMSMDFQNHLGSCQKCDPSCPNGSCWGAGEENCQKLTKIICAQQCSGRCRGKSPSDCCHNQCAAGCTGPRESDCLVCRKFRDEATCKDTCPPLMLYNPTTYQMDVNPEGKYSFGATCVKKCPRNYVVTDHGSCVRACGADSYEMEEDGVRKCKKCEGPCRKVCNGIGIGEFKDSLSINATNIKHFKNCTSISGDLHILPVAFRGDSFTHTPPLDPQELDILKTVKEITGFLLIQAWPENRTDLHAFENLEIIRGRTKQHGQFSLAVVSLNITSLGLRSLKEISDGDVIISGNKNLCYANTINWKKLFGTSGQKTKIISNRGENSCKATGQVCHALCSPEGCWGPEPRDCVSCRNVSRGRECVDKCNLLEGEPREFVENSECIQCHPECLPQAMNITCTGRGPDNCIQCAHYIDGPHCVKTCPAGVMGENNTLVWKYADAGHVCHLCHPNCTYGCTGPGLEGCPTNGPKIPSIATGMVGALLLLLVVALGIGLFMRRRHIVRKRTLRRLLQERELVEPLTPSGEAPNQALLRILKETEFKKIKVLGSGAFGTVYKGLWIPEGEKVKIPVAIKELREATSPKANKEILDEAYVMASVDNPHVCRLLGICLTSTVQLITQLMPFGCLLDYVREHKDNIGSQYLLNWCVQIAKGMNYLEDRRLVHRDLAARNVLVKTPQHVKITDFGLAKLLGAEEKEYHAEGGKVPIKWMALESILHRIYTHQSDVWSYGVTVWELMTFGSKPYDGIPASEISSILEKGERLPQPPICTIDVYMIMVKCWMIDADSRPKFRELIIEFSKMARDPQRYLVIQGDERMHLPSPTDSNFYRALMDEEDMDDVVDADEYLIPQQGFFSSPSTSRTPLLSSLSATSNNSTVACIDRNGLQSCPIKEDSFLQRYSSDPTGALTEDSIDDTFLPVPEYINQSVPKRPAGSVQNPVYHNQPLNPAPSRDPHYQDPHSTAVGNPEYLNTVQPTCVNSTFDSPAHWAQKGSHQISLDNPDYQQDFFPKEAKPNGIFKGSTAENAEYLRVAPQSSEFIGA
Description: Inhibition of recombinant wild type EGFR (696 to C terminal end) (unknown origin) using poly (Glu-Tyr) as substrate preincubated for 30 mins followed by substrate addition and measured after 30 mins by ELISA

| SMILES | IC50 [1] [nM] | IC50 [2] [nM] | IC50 [3] [nM] | IC50 [4] [nM] |
| --- | --- | --- | --- | --- |
| COc1ccc(-c2c3c4cc(OC)c(O)cc4[nH]c(=O)c3n3ccc4cc(O)c(OC)cc4c23)cc1O | 1.9 | 15.5 |  |  |
| COc1ccc(-c2c3c4cc(OC)c(OCCCN(C)C)cc4[nH]c(=O)c3n3ccc4cc(O)c(OC)cc4c23)cc1O | 350 | 1040 | 5.7 | 15.5 |
| COc1ccc(-c2c3c4cc(OCCCN(C)C)c(O)cc4[nH]c(=O)c3n3ccc4cc(O)c(OC)cc4c23)cc1O |  |  | 16.6 | 23.6 |
| COc1ccc(-c2c3c4cc(O)c(OCCCN(C)C)cc4[nH]c(=O)c3n3ccc4cc(O)c(OC)cc4c23)cc1O |  |  | 10.2 | 24.7 |
| COc1ccc(-c2c3c4cc(OCCCN(C)C)c(OCCCN(C)C)cc4[nH]c(=O)c3n3ccc4cc(O)c(OC)cc4c23)cc1O | 1360 | 2040 | 1.7 | 4.6 |
| COc1ccc(-c2c3c4cc(OC)c(OC)cc4[nH]c(=O)c3n3ccc4cc(O)c(OC)cc4c23)cc1O |  |  | 65.3 | 259 |

Reference: ChEMBL document CHEMBL4715917 (Bioorg Med Chem, 2021)
